According to US20040192686A1, “Benzoazine mono-N-oxides and benzoazine 1,4 dioxides and compositions therefrom for the therapeutic use in cancer treatments” (Auckland Uniservices Limited, priority 2003, published 2004):
≈ marks a conversion by molar mass, not a printed value. Like-named read-outs stand apart in the source and are kept apart here.

What was measured:
[1] = system: HT29 cells; experiment: TPZ potentiation test: IC50 of TPZ with and without potentiator, anoxic HT29 cells; format: cell-based, human; conditions: 4 hr anoxic exposure of HT29 cells
[2] = system: HT29 colon carcinoma cells; experiment: IC50 assay of potentiator alone, HT29 cells, 4 hr anoxic exposure, sulphorhodamine B staining; format: cell-based, human; conditions: cell density by sulphorhodamine B five days after washing out
[3] = Approximate solubility limit in Alpha MEM culture medium containing 5% fetal calf serum; format: physicochemical; conditions: dilution from DMSO stock solutions; for solubility: plasma or biological fluid, kinetic from dmso stock
[4] = system: HT29 cells; experiment: Radiosensitisation of anoxic HT29 cells; format: cell-based, human; conditions: 0.6 mM of each agent; anoxic HT29 cells irradiated 5 min after drug addition
Method: Anoxic cell suspensions were irradiated 5 min after addition of pre-equilibrated anoxic drug solutions. Data are shown for duplicate determinations, and are fitted using a linear-quadratic model

[5] = system: HT29 human colon carcinoma cells; experiment: Cytotoxicity (plating efficiency) in stirred single cell suspensions of HT29 cells, anoxic or aerobic
From the text: Cultures were maintained at <10 ppm O2 under a continuously-flowing stream of 5% CO2 in nitrogen and were sampled at intervals to determine plating efficiency.
Experimental conditions were as for FIG. 2, except that the gas phase was 5% CO2 in air. Values are means and error bars are ranges for duplicate cultures.
Drug exposure time was 1 hr. Error bars represent the range for duplicate determinations.

[6] = system: hypoxic (radioresistant) cells in HT29 tumours; experiment: HT29 tumour xenograft excision assay: clonogenic survivors 18 hr after radiation and drug; format: in vivo, mice; conditions: TPZ alone 0.133 mmol/kg i.p. 5 minutes after whole body radiation (20 Gy); HT29 xenografts; clonogenic survivors at 18 hr
Method: Animals with subcutaneous tumours (ca 300 mg) received whole body radiation (RAD; 20 Gy) to sterilise oxygenated tumour cells. Activity of drugs against the hypoxic survivors was determined by intraperitoneal administration of solutions in 5% DMSO/saline 5 min after radiation, using TPZ alone (133 μmol/kg) or in combination with SR 4317 (1000 μmol/kg). Tumours were excised 18 hr after treatment, dissociated enzymatically, and plated to determine the number of clonogenic survivors. Values are geometric means and error bars are standard errors of the mean. Horizontal lines show historical values for untreated controls and radiation only (solid lines are means, dashed lines are 95% confidence limits. p values were determined by one-way ANOVA using only data within this experiment.
The utility of SR 4317 as a potentiator of the hypoxic cytotoxicity of TPZ was assessed in an in vivo model (HT29 tumour xenografts) as illustrated in FIG. 7. In this experiment tumour response was determined by excising tumours 18 hr after treatment and quantifying the number of clonogenic survivors by plating in vitro. TPZ was administered at a sub-efficacious dose (0.133 mmol/kg), 5 minutes after whole body radiation (20 Gy). […] No significant cytotoxicity was observed when the two compounds were administered in the absence of irradiation, indicating lack of activity against aerobic cells in tumours (FIG. 7).

[7] = conc of potentiator 3 mM (compound 56: approximate, slight precipitation)
[8] = Homo sapiens, HT-29, 4 hr exposure under anoxic conditions

With [O-][n+]1nc(CCO)nc2ccccc21 [Compound 61, 3-(2-Hydroxyethyl)-1,2,4-benzotriazine 1-oxide] the “TPR (TPZ potentiation ratio) = TPZ IC50 without potentiator/TPZ IC50 with potentiator” value [1, 7] was 1.2, the IC50 [2, 8] was greater than 3000 µM and the solubility [3] was 3000 µM (≈ 574 µg/mL).

In the case of N#CCNc1nc2ccccc2[n+]([O-])n1 [Compound 25, 2-[(1-Oxido-1,2,4-benzotriazin-3-yl)amino]acetonitrile], the “TPR (TPZ potentiation ratio) = TPZ IC50 without potentiator/TPZ IC50 with potentiator” value ([1]; conc of potentiator 0.2 mM) is reported as 1.9, the IC50 [2, 8] is reported as greater than 300 µM and the solubility [3] is reported as 300 µM (≈ 60.4 µg/mL).

With COc1nc2ccccc2[n+]([O-])n1 [Compound 71, 3-Methoxy-1,2,4-benzotriazine 1-oxide] the “TPR (TPZ potentiation ratio) = TPZ IC50 without potentiator/TPZ IC50 with potentiator” value ([1]; conc of potentiator 0.3 mM) was 3.3, the IC50 [2, 8] was greater than 300 µM and the solubility [3] was 300 µM (≈ 53.1 µg/mL).

In the case of CN(C)CCNc1nc2ccccc2[n+]([O-])n1 [Compound 37, N^1,N^1-Dimethyl-N^2-(1-oxido-1,2,4-benzotriazin-3-yl)-1,2-ethanediamine], the “TPR (TPZ potentiation ratio) = TPZ IC50 without potentiator/TPZ IC50 with potentiator” value ([1]; conc of potentiator 1.0 mM) is reported as 13.9, the IC50 [2, 8] is reported as greater than 1000 µM and the solubility [3] is reported as 1000 µM (≈ 233 µg/mL).

For CCc1nc2ccccc2[n+]([O-])n1 [Compound 56, 3-Ethyl-1,2,4-benzotriazine 1-oxide], the “TPR (TPZ potentiation ratio) = TPZ IC50 without potentiator/TPZ IC50 with potentiator” value [1, 7] was 1.3, the IC50 [2, 8] was greater than 3000 µM and the solubility [3] was 3000 µM (≈ 526 µg/mL).

In the case of CNCCNc1nc2ccccc2[n+]([O-])n1 [Compound 130, N^1-Methyl-#f-(1-oxido-1,2,4-benzotriazin-3-yl)-1,2-ethanediamine], the “TPR (TPZ potentiation ratio) = TPZ IC50 without potentiator/TPZ IC50 with potentiator” value ([1]; conc of potentiator 1.0 mM) is reported as 6.1, the IC50 [2, 8] is reported as 2300 µM and the solubility [3] is reported as 3000 µM (≈ 658 µg/mL).

For Cc1ncc([N+](=O)[O-])n1CCO [metronidazole, reference compound], the “Relative potency for radiosensitization of hypoxic HT29 cells” value [4] was “misonidazole>metronidazole=SR4317” and the “Relative dose potency for potentiation of the hypoxic cytotoxicity of TPZ” value [5] was “lower dose potency than SR 4317”.

With Nc1n[n+]([O-])c2ccccc2[n+]1[O-] [TPZ, tirapazamine, reference compound] the IC50 ([1]; Homo sapiens, HT-29, mean ± sem, n = 4, read-out: IC50 for TPZ alone) was 6.8 µM and the “Killing of the (hypoxic) cells surviving radiation” value [6] was “did not result in statistically significant killing”.

For COCC(O)Cn1ccnc1[N+](=O)[O-] (stereo not drawn) [misonidazole, reference compound], the “Relative potency for radiosensitization of hypoxic HT29 cells” value [4] was “misonidazole>metronidazole=SR4317” and the “Relative dose potency for potentiation of the hypoxic cytotoxicity of TPZ” value ([5]; TPZ 30 μM, anoxic HT29 cells 5×10^5/ml, drug exposure 1 hr) was “lower dose potency than SR 4317”.

For CN(C)CCCNc1nc2ccccc2[n+]([O-])n1 [Compound 44, N^1-(1-Oxido-1,2,4-benzotriazin-3-yl)-N^3,N^3-dimethyl-1,3-propan diamin], the “TPR (TPZ potentiation ratio) = TPZ IC50 without potentiator/TPZ IC50 with potentiator” value ([1]; conc of potentiator 0.3 mM) was 1.2, the IC50 ([2]; 4 hr exposure under anoxic conditions) was 830 µM and the Solubility limit [3] was 3000 µM (≈ 742 µg/mL).

In the case of Nc1nc2ccc([N+](=O)[O-])cc2[n+]([O-])n1 [Compound 3p, 7-Nitro-1,2,4-benzotriazin-3-amine 1-oxide], the melting point is reported as 269 to 272 °C.

For Cc1cc(C)c2c(c1)nc(NCCN(C)C)n[n+]2[O-] [Compound 109, N^1-(6,8-Dimethyl-1-oxido-1,2,4-benzotriazin-3-yl)-N^2,N^2-dimethyl-1,2-ethanediamine], the melting point was 176 to 179 °C.

With Nc1nc2cccc(Cl)c2[n+]([O-])n1 [Compound 3d, 8-Chloro-1,2,4-benzotriazin-3-amine 1-oxide] the melting point was 280 to 290 °C (dec.).

With Cl.[O-][n+]1nc(CCN2CCOCC2)nc2ccccc21 the melting point was 213 to 215 °C.

Compound COc1ccc2c(c1)nc(N)n[n+]2[O-] [Compound 3q, 6-Methoxy-1,2,4-benzotriazin-3-amine 1-oxide] has a melting point of 265 to 270 °C.

COc1cc2nc(NCCN(C)C)n[n+]([O-])c2cc1C [Compound 114, N^1-(6-Methoxy-7-methyl-1-oxido-1,2,4-benzotriazin-3-yl)-N^2,N^2-dimethyl-1,2-ethanediamine] gave a melting point of 167 to 169 °C.

With Cc1cc2nc(NCCN(C)C)n[n+]([O-])c2cc1C [Compound 106, N^1-(6,7-Dimethyl-1-oxido-1,2,4-benzotriazin-3-yl)-N^2,N^2-dimethyl-1,2-ethanediamine] the melting point was 175 to 178 °C.

CN(C)CCCc1nc2ccccc2[n+]([O-])n1.Cl showed a melting point of 228 to 230 °C.

Work on COc1ccc2nc(NCCN3CCOCC3)n[n+]([O-])c2c1 [Compound 94, 7-Methoxy-N-[2-(4-morpholinyl)ethyl]-1,2,4-benzotriazin-3-amine 1-oxide] yielded a melting point of 208 to 212 °C.

COc1ccc(-c2nc3ccccc3[n+]([O-])n2)cc1 [Compound 58, 3-(4-Methoxyphenyl)-1,2,4-benzotriazine 1-oxide] showed a melting point of 168 to 170 °C.

With Nc1nc2ccc(C(F)(F)F)cc2[n+]([O-])n1 [Compound 3m, 7-Trifluoromethyl-1,2,4-benzotriazin-3-amine 1-oxide] the melting point was 290 °C (dec.).

In the case of COc1cc2c(cc1C)nc(NCCN1CCCCC1)n[n+]2[O-] [Compound 119, 7-Methoxy-6-methyl-N-[2-(1-piperidinyl)ethyl]-1,2,4-benzotriazin-3-amine 1-oxide], the melting point is reported as 195 to 197 °C.

For CC(C)(C)c1ccc2c(c1)nc(N)n[n+]2[O-] [Compound 153, 6-tert-Butyl-1,2,4-benzotriazin-3-amine 1-Oxide], the melting point was 209 to 212 °C.

Nc1nc2c(F)cccc2[n+]([O-])n1 [Compound 3ab, 5-Fluoro-1,2,4-benzotriazin-3-amine 1-oxide] gave a melting point of 252 to 256 °C.

Compound CCN(CC)CCNc1nc2cccc(C)c2[n+]([O-])n1 [Compound 162, N^1,N^1-Diethyl-N^2-(8-methyl-1-oxido-1,2,4-benzotriazin-3-yl)-1,2-ethanediamine] has a melting point of 89 to 91 °C.
